Species on record: Rattus norvegicus
Assay: Open TG-GATES - Regimen: Daily Repeat
Assay type: toxicity, organism-based, Sprague-Dawley
Design: regimen Daily Repeat, gender Male, age 6 weeks
Details: in vivo, po, route gavage; for APTT / Bas / Eos / Fbg / Hb / Ht / Lym / MCH / MCHC / MCV / Mono / Neu / PT / Plat / RBC / Ret / WBC: tissue Blood; for KIDNEY_L / KIDNEY_R / KIDNEY_TOTAL: tissue Kidney; for LIVER: tissue Liver; for A/G / ALP / ALT / AST / BUN / CRE / Ca / Cl / DBIL / GLC / IP / K / LDH / Na / PL / RALB / TBIL / TC / TG / TP / gamma-GTP: tissue Plasma
[1] = 0 mg/kg, 72 h, dose level Control, time 3 day
[2] = 0 mg/kg, […], dose level Control, time 7 day
[3] = 0 mg/kg, […], dose level Control, time 14 day
[4] = 0 mg/kg, […], dose level Control, time 28 day
[5] = 8 mg/kg, 72 h, dose level Low, time 3 day
[6] = 8 mg/kg, […], dose level Low, time 7 day
[7] = 8 mg/kg, […], dose level Low, time 14 day
[8] = 8 mg/kg, […], dose level Low, time 28 day

## NC1=NC(=O)C(c2ccccc2)O1 (centres undefined) [PEMOLINE]
[1]
  TERMINAL_BW: 236.5 g
  APTT: 16.2 s
  Bas: 0%
  Eos: 1%
  Fbg: 282.2 mg/dL
  Hb: 13.4 g/dL
  Ht: 39.7%
  Lym: 77.6%
  MCH: 21.7 pg
  MCHC: 33.7%
  MCV: 64.3 fL
  Mono: 3.4%
  Neu: 17.6%
  PT: 12.8 s
  Plat: 105.9 x10_4/uL
  RBC: 617.8 x10_4/ul
  Ret: 8%
  WBC: 90 x10_2/uL
  KIDNEY_L: 1 g
  KIDNEY_R: 1 g
  KIDNEY_TOTAL: 2 g
  LIVER: 11 g
  A/G: 0.9
  ALP: 1625 IU/L
  ALT: 43 IU/L
  AST: 70 IU/L
  BUN: 14.8 mg/dL
  CRE: 0.2 mg/dL
  Ca: 10.7 mg/dL
  Cl: 105.8 meq/L
  DBIL: 0.022 mg/dL
  GLC: 184 mg/dL
  IP: 7.6 mg/dL
  K: 3.9 meq/L
  LDH: 58.6 IU/L
  Na: 143 meq/L
  PL: 147.6 mg/dL
  RALB: 2.6 g/dL
  TBIL: 0.026 mg/dL
  TC: 86 mg/dL
  TG: 88.6 mg/dL
  TP: 5.5 g/dL
  gamma-GTP: 1 IU/L
[2]
  TERMINAL_BW: 274.2 g
  APTT: 17.2 s
  Bas: 0.2%
  Eos: 1%
  Fbg: 286.6 mg/dL
  Hb: 13.8 g/dL
  Ht: 40%
  Lym: 75.4%
  MCH: 21.6 pg
  MCHC: 34.4%
  MCV: 62.7 fL
  Mono: 3.4%
  Neu: 19.2%
  PT: 12.9 s
  Plat: 126.1 x10_4/uL
  RBC: 638.2 x10_4/ul
  Ret: 6.4%
  WBC: 103.3 x10_2/uL
  KIDNEY_L: 1.1 g
  KIDNEY_R: 1.1 g
  KIDNEY_TOTAL: 2.2 g
  LIVER: 13.2 g
  A/G: 0.9
  ALP: 1625.6 IU/L
  ALT: 41.4 IU/L
  AST: 68 IU/L
  BUN: 15.4 mg/dL
  CRE: 0.2 mg/dL
  Ca: 10.6 mg/dL
  Cl: 104.4 meq/L
  DBIL: 0.022 mg/dL
  GLC: 184 mg/dL
  IP: 7.2 mg/dL
  K: 3.8 meq/L
  LDH: 80.2 IU/L
  Na: 142 meq/L
  PL: 160.8 mg/dL
  RALB: 2.7 g/dL
  TBIL: 0.028 mg/dL
  TC: 84.2 mg/dL
  TG: 131.8 mg/dL
  TP: 5.8 g/dL
  gamma-GTP: 1 IU/L
[3]
  TERMINAL_BW: 326.9 g
  APTT: 17.8 s
  Bas: 0%
  Eos: 0.8%
  Fbg: 314 mg/dL
  Hb: 13.9 g/dL
  Ht: 39.7%
  Lym: 75.2%
  MCH: 21.3 pg
  MCHC: 35%
  MCV: 60.8 fL
  Mono: 2.2%
  Neu: 21.4%
  PT: 12.8 s
  Plat: 103.7 x10_4/uL
  RBC: 653.2 x10_4/ul
  Ret: 4.2%
  WBC: 86.4 x10_2/uL
  KIDNEY_L: 1.3 g
  KIDNEY_R: 1.3 g
  KIDNEY_TOTAL: 2.6 g
  LIVER: 14.4 g
  A/G: 0.8
  ALP: 1289.6 IU/L
  ALT: 46.2 IU/L
  AST: 71.8 IU/L
  BUN: 15.2 mg/dL
  CRE: 0.2 mg/dL
  Ca: 11.2 mg/dL
  Cl: 105.4 meq/L
  DBIL: 0.012 mg/dL
  GLC: 180.2 mg/dL
  IP: 8.3 mg/dL
  K: 3.6 meq/L
  LDH: 66.8 IU/L
  Na: 144.6 meq/L
  PL: 144.6 mg/dL
  RALB: 2.7 g/dL
  TBIL: 0.018 mg/dL
  TC: 78.8 mg/dL
  TG: 88.2 mg/dL
  TP: 6 g/dL
  gamma-GTP: 1 IU/L
[4]
  TERMINAL_BW: 438.2 g
  APTT: 17.4 s
  Bas: 0.2%
  Eos: 1%
  Fbg: 268.4 mg/dL
  Hb: 15.1 g/dL
  Ht: 42.3%
  Lym: 82.2%
  MCH: 20.2 pg
  MCHC: 35.7%
  MCV: 56.5 fL
  Mono: 2.6%
  Neu: 12.6%
  PT: 12.2 s
  Plat: 108.5 x10_4/uL
  RBC: 749.2 x10_4/ul
  Ret: 2.8%
  WBC: 121.3 x10_2/uL
  KIDNEY_L: 1.4 g
  KIDNEY_R: 1.4 g
  KIDNEY_TOTAL: 2.9 g
  LIVER: 18.9 g
  A/G: 0.8
  ALP: 980.4 IU/L
  ALT: 41.2 IU/L
  AST: 61.6 IU/L
  BUN: 16.6 mg/dL
  CRE: 0.2 mg/dL
  Ca: 11.4 mg/dL
  Cl: 104 meq/L
  DBIL: 0.018 mg/dL
  GLC: 182.2 mg/dL
  IP: 6.9 mg/dL
  K: 3.7 meq/L
  LDH: 68.8 IU/L
  Na: 143 meq/L
  PL: 160.2 mg/dL
  RALB: 2.8 g/dL
  TBIL: 0.022 mg/dL
  TC: 77.4 mg/dL
  TG: 215 mg/dL
  TP: 6.3 g/dL
  gamma-GTP: 1 IU/L
[5]
  TERMINAL_BW: 232.2 g
  APTT: 17.3 s
  Bas: 0%
  Eos: 1.2%
  Fbg: 275 mg/dL
  Hb: 13.5 g/dL
  Ht: 39.8%
  Lym: 77%
  MCH: 21.5 pg
  MCHC: 33.8%
  MCV: 63.5 fL
  Mono: 3.6%
  Neu: 18.2%
  PT: 12.8 s
  Plat: 112.1 x10_4/uL
  RBC: 627.2 x10_4/ul
  Ret: 7.3%
  WBC: 82.8 x10_2/uL
  KIDNEY_L: 1 g
  KIDNEY_R: 1 g
  KIDNEY_TOTAL: 1.9 g
  LIVER: 11.1 g
  A/G: 0.9
  ALP: 1587 IU/L
  ALT: 45.6 IU/L
  AST: 70.6 IU/L
  BUN: 15 mg/dL
  CRE: 0.2 mg/dL
  Ca: 10.8 mg/dL
  Cl: 105.6 meq/L
  DBIL: 0.018 mg/dL
  GLC: 182 mg/dL
  IP: 8.2 mg/dL
  K: 3.7 meq/L
  LDH: 58.8 IU/L
  Na: 143.6 meq/L
  PL: 155.8 mg/dL
  RALB: 2.7 g/dL
  TBIL: 0.03 mg/dL
  TC: 93 mg/dL
  TG: 84.4 mg/dL
  TP: 5.6 g/dL
  gamma-GTP: 1 IU/L
[6]
  TERMINAL_BW: 267.2 g
  APTT: 17.3 s
  Bas: 0.2%
  Eos: 1%
  Fbg: 286.6 mg/dL
  Hb: 13.8 g/dL
  Ht: 40.5%
  Lym: 79.4%
  MCH: 21.6 pg
  MCHC: 34.1%
  MCV: 63.2 fL
  Mono: 3%
  Neu: 16%
  PT: 12.8 s
  Plat: 119.7 x10_4/uL
  RBC: 641.4 x10_4/ul
  Ret: 5.9%
  WBC: 119.6 x10_2/uL
  KIDNEY_L: 1.2 g
  KIDNEY_R: 1.1 g
  KIDNEY_TOTAL: 2.3 g
  LIVER: 12.4 g
  A/G: 0.9
  ALP: 1719 IU/L
  ALT: 45 IU/L
  AST: 69.8 IU/L
  BUN: 15.8 mg/dL
  CRE: 0.2 mg/dL
  Ca: 10.5 mg/dL
  Cl: 103.8 meq/L
  DBIL: 0.014 mg/dL
  GLC: 180.8 mg/dL
  IP: 7.6 mg/dL
  K: 3.9 meq/L
  LDH: 62.6 IU/L
  Na: 142 meq/L
  PL: 152.6 mg/dL
  RALB: 2.6 g/dL
  TBIL: 0.026 mg/dL
  TC: 84.6 mg/dL
  TG: 94.4 mg/dL
  TP: 5.7 g/dL
  gamma-GTP: 1 IU/L
[7]
  TERMINAL_BW: 337.4 g
  APTT: 17.3 s
  Bas: 0%
  Eos: 1%
  Fbg: 297 mg/dL
  Hb: 14.2 g/dL
  Ht: 40.8%
  Lym: 74.8%
  MCH: 21.4 pg
  MCHC: 34.8%
  MCV: 61.3 fL
  Mono: 2.4%
  Neu: 21.4%
  PT: 12.7 s
  Plat: 109.6 x10_4/uL
  RBC: 665.6 x10_4/ul
  Ret: 4.6%
  WBC: 83 x10_2/uL
  KIDNEY_L: 1.3 g
  KIDNEY_R: 1.3 g
  KIDNEY_TOTAL: 2.6 g
  LIVER: 14.9 g
  A/G: 0.8
  ALP: 1588.8 IU/L
  ALT: 47.4 IU/L
  AST: 70.4 IU/L
  BUN: 14.8 mg/dL
  CRE: 0.2 mg/dL
  Ca: 11.1 mg/dL
  Cl: 105.6 meq/L
  DBIL: 0.014 mg/dL
  GLC: 179.2 mg/dL
  IP: 8.2 mg/dL
  K: 3.7 meq/L
  LDH: 75 IU/L
  Na: 144.6 meq/L
  PL: 150.4 mg/dL
  RALB: 2.7 g/dL
  TBIL: 0.028 mg/dL
  TC: 80 mg/dL
  TG: 117 mg/dL
  TP: 5.8 g/dL
  gamma-GTP: 1 IU/L
[8]
  TERMINAL_BW: 432.5 g
  APTT: 17.5 s
  Bas: 0%
  Eos: 1%
  Fbg: 251.8 mg/dL
  Hb: 15.2 g/dL
  Ht: 42%
  Lym: 70%
  MCH: 20.3 pg
  MCHC: 36.2%
  MCV: 56.2 fL
  Mono: 3.4%
  Neu: 24.6%
  PT: 12.5 s
  Plat: 97.4 x10_4/uL
  RBC: 746.4 x10_4/ul
  Ret: 3.1%
  WBC: 106.7 x10_2/uL
  KIDNEY_L: 1.6 g
  KIDNEY_R: 1.6 g
  KIDNEY_TOTAL: 3.2 g
  LIVER: 17.3 g
  A/G: 0.8
  ALP: 966.8 IU/L
  ALT: 41.4 IU/L
  AST: 63.2 IU/L
  BUN: 15.2 mg/dL
  CRE: 0.2 mg/dL
  Ca: 11.4 mg/dL
  Cl: 104.8 meq/L
  DBIL: 0.016 mg/dL
  GLC: 192.2 mg/dL
  IP: 7.5 mg/dL
  K: 3.9 meq/L
  LDH: 61.8 IU/L
  Na: 142.6 meq/L
  PL: 154.6 mg/dL
  RALB: 2.8 g/dL
  TBIL: 0.028 mg/dL
  TC: 84.4 mg/dL
  TG: 121.4 mg/dL
  TP: 6.1 g/dL
  gamma-GTP: 1 IU/L

Source: ChEMBL document CHEMBL3885861, “Open TG-GATES”
